Reference: patent US20090197932A1, “IMIDAZOLINYLMETHYL ARYL SULFONAMIDE” (priority 2008, published 2009)

What was measured:
alpha-1A adrenoceptors = target: T1, alpha-1A adrenoceptors (Homo sapiens, UniProt P35348); experiment: alpha-1A adrenoceptor partial agonist activity (intrinsic activity and pEC50)
T1 sequence (P35348 1-466): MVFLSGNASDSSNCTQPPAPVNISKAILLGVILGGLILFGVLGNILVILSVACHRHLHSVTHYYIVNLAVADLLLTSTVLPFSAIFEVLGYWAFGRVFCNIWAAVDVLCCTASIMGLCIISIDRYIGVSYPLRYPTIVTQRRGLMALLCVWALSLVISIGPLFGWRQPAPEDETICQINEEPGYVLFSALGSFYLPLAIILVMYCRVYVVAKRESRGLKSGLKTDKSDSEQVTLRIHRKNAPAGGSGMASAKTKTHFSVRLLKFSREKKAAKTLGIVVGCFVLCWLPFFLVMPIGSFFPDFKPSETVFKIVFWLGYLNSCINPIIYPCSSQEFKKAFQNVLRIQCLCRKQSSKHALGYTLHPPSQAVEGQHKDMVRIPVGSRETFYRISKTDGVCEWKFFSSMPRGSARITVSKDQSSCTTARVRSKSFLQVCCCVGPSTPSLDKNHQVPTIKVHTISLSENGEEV

[1] = test system: Female Yucatan Micro-Swine; experiment: Conscious pig model: IUP, MAP and HR during infusion; type: in vivo; conditions: infusion via ear vein for two hours
Experimental: Sling Training: Female Yucatan Micro-Swine were trained to stay in a sling for up to 4 hours. Swine were exposed to progressively longer sling durations per IACUC sling-training guideline.
Surgical Instrumentation: Female Yucatan Micro-swine were instrumented with a telemetry device with both pressure and ECG monitoring capabilities (Data Sciences International St Paul Minn.). In addition, a Bardport low profile titanium VAP was placed subcutanteously for blood sampling. All devices were implanted by the surgical veterinarian at Roche Palo Alto. Briefly, the telemetry probe body was placed subcutaneously in the cervical region. The intra-arterial pressure catheter was advanced via the superficial cervical artery into the subclavian artery for blood pressure measurement. […]
Experiment: After the swine was fully awake and stable (usually approximately 1 hour post wake up), baseline blood pressure, IUP, and heart rate parameters were determined. […]
Data Generating and Analysis Systems: Cardiovascular readings were generated by the TL11M3-D70-PCP (Data Sciences International, St. Paul, Minn.) telemetry device and associated hardware. […] IUP was monitored by a solid state catheter connected to a TA6000 Polygraph (Data Sciences International, St. Paul, Minn.). […]

[2] = test system: Female, Dutch Belted rabbits; experiment: Anesthetized rabbit model: change in IUP and MAP, slope of IUP response; type: in vivo; conditions: i.v.
Experimental: In general, IUP is the intraurethral pressure and is measured as the 2 minute mean from the first peak of the urethral response (FIG. 1). MAP is the mean arterial blood pressure and is measured as the average blood pressure during the 2 minute section where IUP is measured. The durability is the slope of the IUP response in mmHg/min and is calculated immediately after the 2 minute IUP response for 5 minutes (2-7 minutes post the first peak) for the top 3 doses.
Surgery: Female, Dutch Belted rabbits (1.20-2.0 kg, Myrtle's Rabbitry, Tenn.) were anesthetized with isoflurane (3.0% at 2 to 4 L/min) and urethane (1.5 grams/kg, s.c.). In preparation for surgery, the rabbits were shaved, scrubbed (i.e., perineal area, ventral neck, and ventral, caudal surface of the abdomen) and were administered Ringers Lactate Solution (s.c.) to maintain fluids. […]
Experiment: The arterial cannula was connected to a P23XL, pressure transducer (Grass Technologies, West Warwick, R.I.) and the arterial pressure transducer and Unisensor urethral transducer catheter were connected to an Gould 13-6615-50 amplifier (Data Sciences International, St. Paul, Minn.) and Gould TA6000 recorder (Data Sciences International, St. Paul, Minn.) in parallel. All data was analyzed using Power Lab Chart version 5.0.2 (ADInstruments, Colorado Springs, Colo.) data acquisition system. […]
Measurements: The change in IUP and MAP from baseline were measured as well as the slope of the IUP response. MAP was first calculated according to the following formula, where Pd is diastolic pressure and Ps is systolic pressure: MAP=Pd+1/3(Ps−Pd). Pre-dose baseline values for IUP and MAP were assessed during a 2 min period just prior to vehicle or test compound administration. Post-dose values for IUP or MAP were determined during a 2 min period at the first peak in the IUP tracing following vehicle or test compound administration. The change in IUP and MAP induced by vehicle or test compound were then calculated by subtracting the pre-dose value from the post-dose value. […]

CS(=O)(=O)Nc1ccc(CC2=NCCN2)c(Br)c1Cl [Formula I, N-[3-Bromo-2-chloro-4-(4,5-dihydro-1H-imidazol-2-ylmethyl)-phenyl]-methanesulfonamide]
intrinsic activity, or efficacy, as a partial agonist (alpha-1A adrenoceptors; ideally between 0.35 to 0.60): 0.38 | EC50 (alpha-1A adrenoceptors; read-out: affinity, or pEC50 value (converted)): 251 nM | IUP durability [1]: exceptional IUP durability | maximum increase in MAP [2]: 9.75 mmHg | selectivity for enhancement of intraurethral pressure (IUP) over blood pressure (MAP) ([2]; at the 10 mmHg change in IUP level (ED10 of MAP/ED10 of IUP)): 38 fold | durability of IUP response over time ([2]; slope of IUP response 2-7 minutes post the first peak, top 3 doses): increased durability of IUP response over time
